Test results reported in ChEMBL document CHEMBL1130001, “Quantitative structure-activity relationships among macrolide antibacterial agents: in vitro and in vivo potency against Pasteurella multocida” (J Med Chem, 1997).
≈ marks a conversion by molar mass, not a printed value.

How the values were obtained:
[1] = not given; remark: listed apart in the source
[2] = not given; remark: listed apart in the source
[3] = physchem
Description: Dissociation constant (pKa)

[4] = tested on: Pasteurella multocida; format: functional
Description: Log value of the Minimum inhibitory concentration against Pasteurella multocida.

[5] = physchem; remark: listed apart in the source
Description: Dissociation constant (pKa)

[6] = physchem; remark: listed apart in the source
Description: Dissociation constant (pKa)

[7] = tested on: Pasteurella multocida; test: Minimum inhibitory concentration against Pasteurella multocida; format: functional
[8] = organism: Mus musculus; test: Protective dose at which 50% of infected, treated mice survive; format: functional; details: read-out: PD50
[9] = tested on: Pasteurella multocida; test: Minimum inhibitory concentration against Pasteurella multocida.; format: functional

Structure (SMILES) | Log K | pCF [1] | pNF [2] | pKa [3] | Log 1/MIC [4] | pKa [5] | pKa [6] | MIC [7] [µg/mL] | ED50 [8] [mg/kg] | MIC [9] [µg/mL]
CC[C@H]1OC(=O)CC(O)[C@H](C)[C@@H](O[C@@H]2O[C@H](C)C[C@H](N(C)C)[C@H]2O)[C@@H](CCNCC(C)(C)CO)C[C@@H](C)C(=O)/C=C/C(C)=C/[C@@H]1C (stereo partly specified) | 0.43 | 1.161 | 3.481 | 9.72 | 4.12 | 8.53 | – | – | – | –
CC[C@H]1OC(=O)CC(O)[C@H](C)[C@@H](O[C@@H]2O[C@H](C)C[C@H](N(C)C)[C@H]2O)[C@@H](CCN(CCCN(C)C)C(=O)[C@H](C)N)C[C@@H](C)C(=O)/C=C/C(C)=C/[C@@H]1C (stereo partly specified) | -0.12 | 1.938 | 4.138 | 8.78 | 3.27 | 7.81 | 9.6 | – | – | –
CC[C@H]1OC(=O)[C@H](C)[C@@H](O[C@H]2C[C@@](C)(OC)[C@@H](O)[C@H](C)O2)[C@H](C)[C@@H](O[C@@H]2O[C@H](C)C[C@H](N(C)C)[C@H]2O)[C@](C)(O)C[C@@H](C)CN(C)[C@H](C)[C@@H](O)[C@]1(C)O [AZITHROMYCIN] | 0.38 | 1.36 | 3.41 | – | – | – | – | 0.05 (≈ 0.0668 µM) | 16 | –
CC[C@H]1OC(=O)CC(O)[C@H](C)[C@@H](O[C@@H]2O[C@H](C)C[C@H](N(C)C)[C@H]2O)[C@@H](CCN(C)CCCN(C)C(=O)[C@H](C)N)C[C@@H](C)C(=O)/C=C/C(C)=C/[C@@H]1C (stereo partly specified) | -0.16 | 1.307 | 3.067 | 8.53 | 3.27 | 7.03 | 9.16 | – | – | –
CC[C@H]1OC(=O)C[C@@H](O)[C@H](C)[C@@H](O[C@@H]2O[C@H](C)C[C@H](N(C)C)[C@H]2O)[C@@H](CC=O)C[C@@H](C)C(=O)/C=C/[C@]2(C)O[C@H]2[C@@H]1C [ROSARAMICIN] | 0.63 | 0.017 | 1.407 | – | – | 8.79 | – | – | 68 | 0.2 (≈ 0.344 µM)
CO[C@H]1C[C@H](O[C@H]2[C@H](C)[C@@H](O[C@@H]3O[C@H](C)C[C@H](N(C)C)[C@H]3O)[C@@H](C)CC3(CO3)C(=O)[C@H](C)[C@@H](O)[C@@H](C)[C@@H](C)OC(=O)[C@@H]2C)O[C@@H](C)[C@@H]1O (single isomer, unassigned) [OLEANDOMYCIN] | 0.01 | 0.015 | 1.455 | – | – | 8.84 | – | – | > 150 | 6.25 (≈ 9.09 µM)
CCC1OC(=O)CC(O)C(C)C(O[C@@H]2O[C@H](C)C[C@H](N(C)C)[C@H]2O)C(CC=O)CC(C)C(=O)/C=C/C(C)=C/C1C (stereo partly specified) | 0.86 | 0.016 | 1.446 | – | – | 8.83 | – | – | – | –
CC[C@H]1OC(=O)C[C@@H](O)[C@H](C)[C@@H](O[C@@H]2O[C@H](C)[C@@H](O)[C@H](N(C)C)[C@H]2O)[C@@H](CCN2C[C@H](C)C[C@H](C)C2)C[C@@H](C)C(=O)/C=C/C(C)=C/[C@@H]1CO[C@@H]1O[C@H](C)[C@@H](O)[C@@H](OC)[C@H]1OC [TILMICOSIN] | 0.26 | 0.847 | 3.007 | 9.56 | – | 8.18 | – | – | 100 | 1.56 (≈ 1.79 µM)
CC[C@H]1OC(=O)C[C@@H](O)[C@H](C)[C@@H](O[C@@H]2O[C@H](C)[C@@H](O)[C@@H](N(C)C)[C@H]2O)[C@@H](CC=O)C[C@@H](C)C(=O)/C=C/C(C)=C/[C@@H]1CO[C@@H]1O[C@H](C)[C@@H](O)[C@@H](OC)[C@H]1OC | 0.17 | 0.045 | 1.005 | – | 2.39 | 8.36 | – | – | – | –
CO[C@@H]1[C@@H](O[C@@H]2O[C@H](C)[C@@H](O[C@H]3C[C@@](C)(O)[C@@H](OC(=O)CC(C)C)[C@@H](C)O3)[C@@H](N(C)C)[C@H]2O)[C@@H](CC=O)C[C@@H](C)C(=O)/C=C/C=C/C[C@@H](C)OC(=O)C[C@H]1OC(C)=O | – | – | – | – | – | – | – | – | > 150 | 6.25 (≈ 7.57 µM)
CC[C@H]1OC(=O)CC(O)[C@H](C)[C@@H](O[C@@H]2O[C@H](C)C[C@H](N(C)C)[C@H]2O)[C@@H](CCNC2C(O)CCCC2O)C[C@@H](C)C(=O)/C=C/C(C)=C/[C@@H]1C (stereo partly specified) | 0.23 | 1.189 | 3.099 | 9.31 | 3.53 | 8.56 | – | – | – | –
CC[C@H]1OC(=O)C[C@@H](O)[C@H](C)[C@@H](O[C@@H]2O[C@H](C)[C@@H](O[C@H]3C[C@@](C)(O)[C@@H](O)[C@H](C)O3)[C@H](N(C)C)[C@H]2O)[C@@H](CC=O)C[C@@H](C)C(=O)/C=C/C(C)=C/[C@@H]1CO[C@@H]1O[C@H](C)[C@@H](O)[C@@H](OC)[C@H]1OC [TYLOSIN] | 0.68 | 0.167 | 0.497 | – | – | 7.73 | – | – | 86 | 25 (≈ 27.3 µM)
CO[C@@H]1[C@@H](O[C@@H]2O[C@H](C)[C@@H](O[C@H]3C[C@@](C)(O)[C@@H](OC(=O)CC(C)C)[C@H](C)O3)[C@H](N(C)C)[C@H]2O)[C@@H](CC=O)C[C@@H](C)C(=O)/C=C/[C@@H]2O[C@H]2C[C@@H](C)OC(=O)C[C@H]1OC(C)=O [CARBOMYCIN A] | 1.48 | 0.209 | 0.419 | – | – | 7.61 | – | – | > 150 | 1.56 (≈ 1.85 µM)
CC[C@H]1OC(=O)[C@H](C)[C@@H](O[C@H]2C[C@@](C)(OC)[C@@H](O)[C@H](C)O2)[C@H](C)[C@@H](O[C@@H]2O[C@H](C)C[C@H](N(C)C)[C@H]2O)[C@](C)(OC)C[C@@H](C)C(=O)[C@H](C)[C@@H](O)[C@]1(C)O [CLARITHROMYCIN] | 0.63 | 0.011 | 1.601 | – | – | – | – | – | 100 | 0.39 (≈ 0.521 µM)
CC[C@H]1OC(=O)CC(O)[C@H](C)[C@@H](O[C@@H]2O[C@H](C)C[C@H](N(C)C)[C@H]2O)[C@@H](CCN(C)CCN(C)C(=O)[C@H](C)N)C[C@@H](C)C(=O)/C=C/C(C)=C/[C@@H]1C (stereo partly specified) | 0.02 | 0.891 | 2.391 | 8.13 | 4.15 | 6.81 | 8.9 | – | – | –
CC[C@H]1OC(=O)CC(O)[C@H](C)[C@@H](O[C@@H]2O[C@H](C)C[C@H](N(C)C)[C@H]2O)[C@@H](CCNCCO)C[C@@H](C)C(=O)/C=C/C(C)=C/[C@@H]1C (stereo partly specified) | 0.1 | 1.217 | 3.437 | 9.62 | 3.79 | 8.59 | – | – | – | –
CC[C@H]1OC(=O)CC(O)[C@H](C)[C@@H](O[C@@H]2O[C@H](C)C[C@H](N(C)C)[C@H]2O)[C@@H](CCNCCCN(C)C)C[C@@H](C)C(=O)/C=C/C(C)=C/[C@@H]1C (stereo partly specified) | 0.19 | 2.157 | 4.887 | 8.88 | 3.22 | 7.97 | 10.1 | – | – | –
CC[C@H]1OC(=O)CC(O)[C@H](C)[C@@H](O[C@@H]2O[C@H](C)C[C@H](N(C)C)[C@H]2O)[C@@H](CCN(C)CCN(C)C)C[C@@H](C)C(=O)/C=C/C(C)=C/[C@@H]1C (stereo partly specified) | -0.23 | 0.863 | 2.413 | 8.19 | 2.44 | 5.61 | 8.95 | – | – | –
CC[C@H]1OC(=O)[C@H](C)[C@@H](O[C@H]2C[C@@](C)(OC)[C@@H](O)[C@H](C)O2)[C@H](C)[C@@H](O[C@@H]2O[C@H](C)C[C@H](N(C)C)[C@H]2O)[C@](C)(O)C[C@@H](C)C(=O)[C@H](C)[C@@H](O)[C@]1(C)O [ERYTHROMYCIN] | 0.35 | 0.014 | 1.494 | – | – | 8.88 | – | – | > 150 | 0.78 (≈ 1.06 µM)
